Test results taken from publication PMC3214078 (PLoS ONE, 2011).
Positions count from the first letter of the chain named. Where no end group is shown, it is not given here.

What was measured:
Format in all cases: binding
huUHRF1-PHD296–367 = target: T1, huUHRF1-PHD296–367 (Homo sapiens, UniProt Q96T88); assay: ITC, wild-type huUHRF1-PHD296–367 with histone H3 peptides; conditions: 20°C, 20 mM Tris pH 7, 150 mM NaCl, 0.5 mM TCEP, 25 µM ZnCl2, 0.1 mM PMSF, peptide 1.5–2 mM into protein 0.12–0.18 mM, at least in duplicates
T1 construct: (His)6-GST (N, cleaved yes); made in house; host or cells: Escherichia coli Rosetta 2
T1 sequence (Q96T88 296-367): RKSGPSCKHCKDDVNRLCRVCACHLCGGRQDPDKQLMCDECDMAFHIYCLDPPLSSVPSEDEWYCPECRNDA
Protocol: Measurements were carried out at 20°C on an ITC200 Microcal calorimeter (MicroCal). […] A typical titration consisted of 19 injections of 2 µl of peptide into 203 µl of the protein solution at time intervals of 150–300 s. Control experiments were performed under identical conditions to determine the dilution heat of the titrant peptide into buffer. Data were analyzed using the software ORIGIN 5.0 (OriginLab Corporation) and all the measurements were performed, at least, in duplicates.

huUHRF1-PHD296–367 D334A = target: T2, huUHRF1-PHD296–367 D334A (Homo sapiens, UniProt Q96T88, D334A); assay: ITC, D334A mutant; conditions: 20°C, 20 mM Tris pH 7, 150 mM NaCl, 0.5 mM TCEP, 25 µM ZnCl2, at least in duplicates
T2 construct: Characterization of key residues for the recognition of the histone H3 tail by huUHRF1-PHD296–367; (His)6-GST (N, cleaved yes); made in house; host or cells: Escherichia coli Rosetta 2
T2 sequence (Q96T88 296-367 D334A): T1 sequence (Q96T88 296-367) with D39A
Protocol: (§1) Measurements were carried out at 20°C on an ITC200 Microcal calorimeter (MicroCal). Histone peptides (1–12Y, 1.5–2 mM) were injected to a sample of either wild-type or mutant huUHRF1-PHD (0.12–0.18 mM) in a reaction buffer containing 20 mM Tris pH 7, 150 mM NaCl, 0.5 mM TCEP, 25 µM ZnCl2 and 0.1 mM PMSF. A typical titration consisted of 19 injections of 2 µl of peptide into 203 µl of the protein solution at time intervals of 150–300 s. Control experiments were performed under identical conditions to determine the dilution heat of the titrant peptide into buffer. Data were analyzed using the software ORIGIN 5.0 (OriginLab Corporation) and all the measurements were performed, at least, in duplicates.

huUHRF1-PHD296–367 D337A = target: T3, huUHRF1-PHD296–367 D337A (Homo sapiens, UniProt Q96T88, D337A); assay: ITC, D337A mutant; conditions: 20°C, 20 mM Tris pH 7, 150 mM NaCl, 0.5 mM TCEP, 25 µM ZnCl2, at least in duplicates
T3 construct: Characterization of key residues for the recognition of the histone H3 tail by huUHRF1-PHD296–367; (His)6-GST (N, cleaved yes); made in house; host or cells: Escherichia coli Rosetta 2
T3 sequence (Q96T88 296-367 D337A): T1 sequence (Q96T88 296-367) with D42A
Protocol: as §1

Kd (huUHRF1-PHD296–367) | Kd (huUHRF1-PHD296–367 D334A) | Kd (huUHRF1-PHD296–367 D337A) | Compound
16.6 ± 0.9 µM | – | – | ARTAQTARKSTGY [H3K4A (1-12Y)]
7.9 µM | – | – | C[C@H](N)C(=O)N[C@@H](CCCNC(=N)N)C(=O)N[C@H](C(=O)N[C@@H](CCCCN)C(=O)N[C@@H](CCC(N)=O)C(=O)N[C@H](C(=O)N[C@@H](C)C(=O)N[C@@H](CCCNC(=N)N)C(=O)N[C@@H](CCCCN)C(=O)N[C@@H](CO)C(=O)N[C@H](C(=O)NCC(=O)N[C@@H](Cc1ccc(O)cc1)C(=O)O)[C@@H](C)O)[C@@H](C)O)[C@@H](C)O [unmodified H3]
– | > 500 µM | 68 ± 8 µM | C[C@H](N)C(=O)N[C@@H](CCCNC(=N)N)C(=O)N[C@H](C(=O)N[C@@H](CCCCN)C(=O)N[C@@H](CCC(N)=O)C(=O)N[C@H](C(=O)N[C@@H](C)C(=O)N[C@@H](CCCNC(=N)N)C(=O)N[C@@H](CCCCN)C(=O)N[C@@H](CO)C(=O)N[C@H](C(=O)NCC(=O)N[C@@H](Cc1ccc(O)cc1)C(=O)O)[C@@H](C)O)[C@@H](C)O)[C@@H](C)O [H3 (1-12Y)]
